According to patent US20250346592A1 (Celgene Corporation, priority 2022, published 2025):

Molecular target: hPAD4 enzyme (Homo sapiens (Human), UniProt Q9UM07)
Assay: RFMS2 assay (RapidFire mass spectrometry, TSTGGRQGSHH peptide substrate)
Format: biochemical
Settings: 35 nM recombinant human PAD4, 500 μM TSTGGRQGSHH peptide, 30 minutes at room temperature; read-out: RFMS 2 IC50
Description: Stock compounds were dissolved and stored in 100% DMSO. Compound solutions were prepared via serial dilution at 3-fold intervals in DMSO with top compound concentration at 20 μM in each assay. 0.25 μl of compound solution was transferred from the compound plate to the assay plate by using an acoustic dispenser.
• Total reaction volume: 25 μl • Assay buffer: […] pH 7.4, 200 mM NaCl, 2 mM CaCl2, 5 mM DTT • 35 nM recombinant human PAD4 • 500 μM TSTGGRQGSHH peptide • 1.2% DMSO • Stop solution: 10% formic acid
Reaction mixtures were incubated at room temperature for 30 minutes. 10 μl each of the reaction mixtures was then mixed with 40 μl of 10% formic acid in a microtiter plate. The plate was frozen at −80° C. before shipping out on dry ice for RapidFire mass spectroscopy analysis.
Thawed samples were loaded onto the Rapid Fire 300 system (Agilent) wherein they were first sipped for 250 ms and then loaded onto a Agilent “C” (C18) cartridge using a mobile phase of water containing 0.09% formic acid/0.01% trifluoroacetic acid for 3000 ms desalting flowing at a rate of 1.5 ml/min. Once the samples were loaded and washed, a mobile phase of acetonitrile containing 0.09% formic acid/0.01% trifluoroacetic acid was used to elute the samples directly onto a Sciex API4000 triple quadrupole mass spectrometer for 3000 ms at a flow rate of 1.25 ml/min.
MRM transitions for substrate and product were monitored in positive ESI mode at m/z=562.3/969.7 and m/z=562.8/541.3 respectively. The dwell time for each transition was set at 100 ms, and the ESI voltage was used at 5500 with a source temperature of 650° C. Extracted ion peaks for each transition were integrated using the Rapid Fire Integrator software.
Compounds having an activity designated as “A” provided an IC50≤10 nM; compounds having an activity designated as “B” provided an IC50 11-100 nM; compounds having an activity designated as “C” provided an IC50 101-500 nM; compounds having an activity designated as “D” provided an IC50 501-1000 nM; compounds having an activity designated as “E” provided an IC50>1000 nM.

Sequence of hPAD4 enzyme (Q9UM07 whole entry): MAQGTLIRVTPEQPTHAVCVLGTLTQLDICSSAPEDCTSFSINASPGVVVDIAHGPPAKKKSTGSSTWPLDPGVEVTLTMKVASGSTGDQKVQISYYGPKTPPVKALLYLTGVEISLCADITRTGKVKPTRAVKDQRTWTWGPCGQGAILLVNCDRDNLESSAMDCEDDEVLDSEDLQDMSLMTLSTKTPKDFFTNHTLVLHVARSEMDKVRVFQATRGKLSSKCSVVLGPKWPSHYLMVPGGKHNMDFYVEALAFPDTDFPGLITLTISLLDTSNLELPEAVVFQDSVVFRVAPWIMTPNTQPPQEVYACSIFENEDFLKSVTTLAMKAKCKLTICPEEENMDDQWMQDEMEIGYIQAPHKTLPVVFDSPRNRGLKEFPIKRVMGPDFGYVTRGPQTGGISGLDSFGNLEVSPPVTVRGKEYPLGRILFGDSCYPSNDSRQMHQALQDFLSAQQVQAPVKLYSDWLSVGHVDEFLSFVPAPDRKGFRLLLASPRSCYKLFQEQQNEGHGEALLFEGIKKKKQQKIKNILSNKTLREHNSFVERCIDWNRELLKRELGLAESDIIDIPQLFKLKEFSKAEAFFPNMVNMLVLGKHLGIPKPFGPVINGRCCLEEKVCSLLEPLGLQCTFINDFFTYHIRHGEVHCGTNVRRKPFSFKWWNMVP

Structure (SMILES) | IC50 [nM]
C[C@@H](N)CN1CCc2cc3c(cc2C1=O)nc(-c1cc2ccc(Cl)cc2n1CC1CC1)n3C [Example 25, (R)-6-(2-aminopropyl)-2-(6-chloro-1-(cyclopropylmethyl)-1H-indol-2-yl)-1-methyl-1,6,7,8-tetrahydro-5H-imidazo[4,5-g]isoquinolin-5-one] | 101 to 500
COc1cccc2cc(-c3nc4cc5c(cc4n3C)CCN(C[C@H](N)CF)C5=O)n(CC(C)OC)c12 (single isomer, unassigned) [Example 130] | 101 to 500
Cc1ccc2cc(-c3nc4cc5c(cc4n3C)CCN(C[C@@H](C)N)C5=O)n(CC3CCC3)c2c1 [Example 83] | 101 to 500
Cn1c(-c2cc3ccc(C4CC4)nc3n2CC2CC2)nc2cc3c(cc21)CCN(C[C@H](N)CF)C3=O [Example 59, (S)-6-(2-amino-3-fluoropropyl)-2-(6-cyclopropyl-1-(cyclopropylmethyl)-1H-pyrrolo[2,3-b]pyridin-2-yl)-1-methyl-1,6,7,8-tetrahydro-5H-imidazo[4,5-g]isoquinolin-5-one] | 101 to 500
COCCn1c(-c2nc3cc4c(cc3n2C)CCN(C[C@H](N)CF)C4=O)cc2ccc(OC)cc21 [Example 103, (S)-6-(2-amino-3-fluoropropyl)-2-(6-methoxy-1-(2-methoxyethyl)-1H-indol-2-yl)-1-methyl-1,6,7,8-tetrahydro-5H-imidazo[4,5-g]isoquinolin-5-one] | 501 to 1000
CC(C)c1cccc2cc(-c3nc4cc5c(cc4n3C)CCN(C[C@@H](C)N)C5=O)n(CC3CC3)c12 [Example 19, (R)-6-(2-aminopropyl)-2-(1-(cyclopropylmethyl)-7-isopropyl-1H-indol-2-yl)-1-methyl-1,6,7,8-tetrahydro-5H-imidazo[4,5-g]isoquinolin-5-one] | 101 to 500
C[C@@H](N)CN1CCc2cc3c(cc2C1=O)nc(-c1cc2ccc(C#N)cc2n1CC1CC1)n3C [Example 32] | 101 to 500
CCN[C@H](C)CN1CCc2cc3c(cc2C1=O)nc(-c1cc2ccccc2n1CC1CC1)n3C [Example 2, (R)-2-(1-(cyclopropylmethyl)-1H-indol-2-yl)-6-(2-(ethylamino)propyl)-1-methyl-1,6,7,8-tetrahydro-5H-imidazo[4,5-g]isoquinolin-5-one] | 501 to 1000

Continued, values first:

IC50 [nM] | Structure (SMILES)
101 to 500 | CC(Oc1cccc2cc(-c3nc4cc5c(cc4n3C)CCN(C[C@H](N)CF)C5=O)n(CC3CC3)c12)c1ccno1 (stereo partly drawn) [Example 197, 6-((S)-2-amino-3-fluoropropyl)-2-(1-(cyclopropylmethyl)-7-(1-(isoxazol-5-yl)ethoxy)-1H-indol-2-yl)-1-methyl-1,6,7,8-tetrahydro-5H-imidazo[4,5-g]isoquinolin-5-one]
101 to 500 | Cn1c(-c2cc3cccc(OC[C@H](O)C(F)(F)F)c3n2CC2CC2)nc2cc3c(cc21)CCN(C[C@H](N)CF)C3=O [Example 216, 6-((S)-2-amino-3-fluoropropyl)-2-(1-(cyclopropylmethyl)-7-((S)-3,3,3-trifluoro-2-hydroxypropoxy)-1H-indol-2-yl)-1-methyl-1,6,7,8-tetrahydro-5H-imidazo[4,5-g]isoquinolin-5-one]
101 to 500 | Cn1c(-c2cc3cccc(OCC4CC(F)(F)C(=O)N4)c3n2CC2CC2)nc2cc3c(cc21)CCN(C[C@H](N)CF)C3=O (stereo partly drawn) [Example 185, 6-((S)-2-amino-3-fluoropropyl)-2-(1-(cyclopropylmethyl)-7-((4,4-difluoro-5-oxopyrrolidin-2-yl)methoxy)-1H-indol-2-yl)-1-methyl-1,6,7,8-tetrahydro-5H-imidazo[4,5-g]isoquinolin-5-one]
101 to 500 | COC(=O)NC[C@H](C)Oc1cccc2cc(-c3nc4cc5c(cc4n3C)CCN(C[C@H](N)CF)C5=O)n(CC3CC3)c12 [Example 202, methyl ((S)-2-((2-(6-((S)-2-amino-3-fluoropropyl)-1-methyl-5-oxo-5,6,7,8-tetrahydro-1H-imidazo[4,5-g]isoquinolin-2-yl)-1-(cyclopropylmethyl)-1H-indol-7-yl)oxy)propyl) carbamate]
